Measurements from PubChem BioAssay AID1963961 (Molecular Pharmacology Branch, DTP, NCI, 2024).

Tested on: K98450-129-R-PDC multicell spheroids, viability
Assay: Anticancer human tumor K98450-129-R-PDC patient-derived colon adenocarcinoma cell line growth inhibition [PI3K]
Conditions: for IC50: curve of first compound; for viability, T/C: stronger effect = lower value; active = viability on the fitted dose curve at most 10% of control; inactive = the rest
In short: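 Spheroid viability read-out. Co-cultures contained the tumor line plus HUVEC and human MSCs. Each agent was paired with a PI3K inhibitor (inavolisib, alpelisib, duvelisib, copanlisib) across half-log dilutions starting at clinical Cmax, or at 10 microM when Cmax was unknown.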

[1] = second compound 0.0316 µM, first compound 0.0316 µM
[2] = second compound 0.0316 µM, first compound 0.1 µM
[3] = second compound 0.0316 µM, first compound 0.316 µM
[4] = second compound 0.0316 µM, first compound 1 µM
[5] = second compound 0.0316 µM, first compound 3.16 µM
[6] = second compound 0.0316 µM, first compound 10 µM
[7] = second compound 0.1 µM, first compound 0.0316 µM
[8] = second compound 0.1 µM, first compound 0.1 µM
[9] = second compound 0.1 µM, first compound 0.316 µM
[10] = second compound 0.1 µM, first compound 1 µM
[11] = second compound 0.1 µM, first compound 3.16 µM
[12] = second compound 0.1 µM, first compound 10 µM
[13] = second compound 0.316 µM, first compound 0.0316 µM
[14] = second compound 0.316 µM, first compound 0.1 µM
[15] = second compound 0.316 µM, first compound 0.316 µM
[16] = second compound 0.316 µM, first compound 1 µM
[17] = second compound 0.316 µM, first compound 3.16 µM
[18] = second compound 0.316 µM, first compound 10 µM
[19] = second compound 1 µM, first compound 0.0316 µM
[20] = second compound 1 µM, first compound 0.1 µM
[21] = second compound 1 µM, first compound 0.316 µM
[22] = second compound 1 µM, first compound 1 µM
[23] = second compound 1 µM, first compound 3.16 µM
[24] = second compound 1 µM, first compound 10 µM
[25] = second compound 3.16 µM, first compound 0.0316 µM
[26] = second compound 3.16 µM, first compound 0.1 µM
[27] = second compound 3.16 µM, first compound 0.316 µM
[28] = second compound 3.16 µM, first compound 1 µM
[29] = second compound 3.16 µM, first compound 3.16 µM
[30] = second compound 3.16 µM, first compound 10 µM
[31] = second compound 10 µM, first compound 0.0316 µM
[32] = second compound 10 µM, first compound 0.1 µM
[33] = second compound 10 µM, first compound 0.316 µM
[34] = second compound 10 µM, first compound 1 µM
[35] = second compound 10 µM, first compound 3.16 µM
[36] = second compound 10 µM, first compound 10 µM
[37] = second compound 0.0316 µM, first compound 0.000316 µM
[38] = second compound 0.0316 µM, first compound 0.001 µM
[39] = second compound 0.0316 µM, first compound 0.00316 µM
[40] = second compound 0.0316 µM, first compound 0.01 µM
[41] = second compound 0.1 µM, first compound 0.000316 µM
[42] = second compound 0.1 µM, first compound 0.001 µM
[43] = second compound 0.1 µM, first compound 0.00316 µM
[44] = second compound 0.1 µM, first compound 0.01 µM
[45] = second compound 0.316 µM, first compound 0.000316 µM
[46] = second compound 0.316 µM, first compound 0.001 µM
[47] = second compound 0.316 µM, first compound 0.00316 µM
[48] = second compound 0.316 µM, first compound 0.01 µM
[49] = second compound 1 µM, first compound 0.000316 µM
[50] = second compound 1 µM, first compound 0.001 µM
[51] = second compound 1 µM, first compound 0.00316 µM
[52] = second compound 1 µM, first compound 0.01 µM
[53] = second compound 3.16 µM, first compound 0.000316 µM
[54] = second compound 3.16 µM, first compound 0.001 µM
[55] = second compound 3.16 µM, first compound 0.00316 µM
[56] = second compound 3.16 µM, first compound 0.01 µM
[57] = second compound 10 µM, first compound 0.000316 µM
[58] = second compound 10 µM, first compound 0.001 µM
[59] = second compound 10 µM, first compound 0.00316 µM
[60] = second compound 10 µM, first compound 0.01 µM
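Note: spheroids exposed to agents for seven days before read-out.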

CC(C)NCC(C(=O)N1CCN(c2ncnc3c2C(C)CC3O)CC1)c1ccc(Cl)cc1 (stereo not given) + Cc1nc(NC(=O)N2CCCC2C(N)=O)sc1-c1ccnc(C(C)(C)C(F)(F)F)c1
inactive: viability, T/C [1] 104% | viability, T/C [2] 99.1% | viability, T/C [3] 107% | viability, T/C [4] 104% | viability, T/C [5] 100% | viability, T/C [6] 102% | viability, T/C [7] 108% | viability, T/C [8] 98.8% | viability, T/C [9] 103% | viability, T/C [10] 100% | viability, T/C [11] 103% | viability, T/C [12] 99.9% | viability, T/C [13] 104% | viability, T/C [14] 105% | viability, T/C [15] 104% | viability, T/C [16] 95.2% | viability, T/C [17] 101% | viability, T/C [18] 97% | viability, T/C [19] 84.6% | viability, T/C [20] 93.1% | viability, T/C [21] 96.5% | viability, T/C [22] 89.6% | viability, T/C [23] 102% | viability, T/C [24] 94.5% | viability, T/C [25] 86.6% | viability, T/C [26] 84.1% | viability, T/C [27] 90.2% | viability, T/C [28] 80.3% | viability, T/C [29] 95.6% | viability, T/C [30] 91.1% | viability, T/C [31] 70.7% | viability, T/C [32] 78% | viability, T/C [33] 77% | viability, T/C [34] 73.1% | viability, T/C [35] 78.1% | viability, T/C [36] 75%
> 10 µM: IC50 (second compound 0.0316 µM) | IC50 (second compound 0.1 µM) | IC50 (second compound 0.316 µM) | IC50 (second compound 1 µM) | IC50 (second compound 3.16 µM) | IC50 (second compound 10 µM)

CC(C)n1nc(-c2ccc3oc(N)nc3c2)c2c(N)ncnc21 + Cc1nc(NC(=O)N2CCCC2C(N)=O)sc1-c1ccnc(C(C)(C)C(F)(F)F)c1
> 0.1 µM: IC50 (second compound 0.0316 µM) | IC50 (second compound 0.1 µM) | IC50 (second compound 0.316 µM) | IC50 (second compound 1 µM) | IC50 (second compound 3.16 µM) | IC50 (second compound 10 µM)
inactive: viability, T/C [37] 102% | viability, T/C [38] 97.8% | viability, T/C [39] 101% | viability, T/C [40] 91.2% | viability, T/C [1] 87.2% | viability, T/C [2] 75.3% | viability, T/C [41] 106% | viability, T/C [42] 95.3% | viability, T/C [43] 99.5% | viability, T/C [44] 91% | viability, T/C [7] 88.8% | viability, T/C [8] 79.9% | viability, T/C [45] 95.8% | viability, T/C [46] 99.5% | viability, T/C [47] 89.2% | viability, T/C [48] 90.2% | viability, T/C [13] 86.4% | viability, T/C [14] 72.3% | viability, T/C [49] 88.6% | viability, T/C [50] 89.5% | viability, T/C [51] 92.8% | viability, T/C [52] 80.2% | viability, T/C [19] 81.9% | viability, T/C [20] 70% | viability, T/C [53] 79.4% | viability, T/C [54] 78% | viability, T/C [55] 79.5% | viability, T/C [56] 70.8% | viability, T/C [25] 77.9% | viability, T/C [26] 61.2% | viability, T/C [57] 66.1% | viability, T/C [58] 70.9% | viability, T/C [59] 69.8% | viability, T/C [60] 71.9% | viability, T/C [31] 64.3% | viability, T/C [32] 59.2%

CC1(C)CCC(CN2CCN(c3ccc(C(=O)NS(=O)(=O)c4ccc(NCC5CCOCC5)c([N+](=O)[O-])c4)c(Oc4cnc5[nH]ccc5c4)c3)CC2)=C(c2ccc(Cl)cc2)C1 + Cc1nc(NC(=O)N2CCCC2C(N)=O)sc1-c1ccnc(C(C)(C)C(F)(F)F)c1
5.71 µM: IC50 (second compound 0.1 µM)
6.03 µM: IC50 (second compound 0.0316 µM)
5.78 µM: IC50 (second compound 0.316 µM)
5.16 µM: IC50 (second compound 3.16 µM)
inactive: viability, T/C [1] 105% | viability, T/C [2] 101% | viability, T/C [3] 106% | viability, T/C [4] 100% | viability, T/C [5] 98.3% | viability, T/C [6] 12.2% | viability, T/C [7] 104% | viability, T/C [8] 96.9% | viability, T/C [9] 104% | viability, T/C [10] 95% | viability, T/C [11] 92.5% | viability, T/C [13] 99.5% | viability, T/C [14] 95.5% | viability, T/C [15] 98.6% | viability, T/C [16] 92.4% | viability, T/C [17] 93.5% | viability, T/C [18] 10.5% | viability, T/C [19] 88.4% | viability, T/C [20] 94.4% | viability, T/C [21] 94.9% | viability, T/C [22] 91% | viability, T/C [23] 88.4% | viability, T/C [25] 80.6% | viability, T/C [26] 87.4% | viability, T/C [27] 86% | viability, T/C [28] 84.3% | viability, T/C [29] 83% | viability, T/C [31] 70% | viability, T/C [32] 73.9% | viability, T/C [33] 72.9% | viability, T/C [34] 68.5% | viability, T/C [35] 77%
4.66 µM: IC50 (second compound 10 µM)
5.4 µM: IC50 (second compound 1 µM)
active: viability, T/C [12] 9.67% | viability, T/C [24] 5.86% | viability, T/C [30] 5.29% | viability, T/C [36] 5.54%

C[C@@H](NC(=O)c1ncnc(N)c1Cl)c1ncc(C(=O)Nc2cc(C(F)(F)F)c(Cl)cn2)s1 + Cc1nc(NC(=O)N2CCCC2C(N)=O)sc1-c1ccnc(C(C)(C)C(F)(F)F)c1
inactive: viability, T/C [1] 104% | viability, T/C [2] 106% | viability, T/C [3] 119% | viability, T/C [4] 117% | viability, T/C [5] 112% | viability, T/C [6] 103% | viability, T/C [7] 117% | viability, T/C [8] 98.2% | viability, T/C [9] 119% | viability, T/C [10] 104% | viability, T/C [11] 112% | viability, T/C [12] 104% | viability, T/C [13] 107% | viability, T/C [14] 104% | viability, T/C [15] 106% | viability, T/C [16] 108% | viability, T/C [17] 110% | viability, T/C [18] 103% | viability, T/C [19] 92.6% | viability, T/C [20] 99% | viability, T/C [21] 105% | viability, T/C [22] 102% | viability, T/C [23] 111% | viability, T/C [24] 90% | viability, T/C [25] 84.8% | viability, T/C [26] 90.3% | viability, T/C [27] 96.5% | viability, T/C [28] 91.7% | viability, T/C [29] 95.8% | viability, T/C [30] 75.1% | viability, T/C [31] 76.5% | viability, T/C [32] 74.3% | viability, T/C [33] 83.7% | viability, T/C [34] 76.8% | viability, T/C [35] 72.5% | viability, T/C [36] 58.5%
> 10 µM: IC50 (second compound 0.0316 µM) | IC50 (second compound 0.1 µM) | IC50 (second compound 0.316 µM) | IC50 (second compound 1 µM) | IC50 (second compound 3.16 µM) | IC50 (second compound 10 µM)

Cn1ncnc1[C@H]1c2n[nH]c(=O)c3cc(F)cc(c23)N[C@@H]1c1ccc(F)cc1 + Cc1nc(NC(=O)N2CCCC2C(N)=O)sc1-c1ccnc(C(C)(C)C(F)(F)F)c1
> 0.1 µM: IC50 (second compound 0.0316 µM) | IC50 (second compound 0.1 µM) | IC50 (second compound 0.316 µM) | IC50 (second compound 1 µM) | IC50 (second compound 3.16 µM) | IC50 (second compound 10 µM)
inactive: viability, T/C [37] 110% | viability, T/C [38] 108% | viability, T/C [39] 109% | viability, T/C [40] 97.3% | viability, T/C [1] 101% | viability, T/C [2] 96.3% | viability, T/C [41] 108% | viability, T/C [42] 99.2% | viability, T/C [43] 106% | viability, T/C [44] 100% | viability, T/C [7] 102% | viability, T/C [8] 97.6% | viability, T/C [45] 96.5% | viability, T/C [46] 99% | viability, T/C [47] 99.9% | viability, T/C [48] 97.8% | viability, T/C [13] 104% | viability, T/C [14] 87.3% | viability, T/C [49] 89.4% | viability, T/C [50] 98.1% | viability, T/C [51] 95.2% | viability, T/C [52] 90.7% | viability, T/C [19] 101% | viability, T/C [20] 91.9% | viability, T/C [53] 85% | viability, T/C [54] 89.4% | viability, T/C [55] 86.9% | viability, T/C [56] 86% | viability, T/C [25] 91.6% | viability, T/C [26] 80.3% | viability, T/C [57] 72.4% | viability, T/C [58] 73.1% | viability, T/C [59] 75.7% | viability, T/C [60] 71.5% | viability, T/C [31] 74.8% | viability, T/C [32] 70.2%
